# In paper PMC5654082 (Malaria Journal, 2017):
# Structures can show the parent of a compound that is named as a salt. Marks after values point to notes of the source that are not given here.
# Experiments:
# [1] = Thai children with uncomplicated multidrug-resistant falciparum malaria; (geometric) mean or median; cited from earlier work
# [2] = target: T1, MATE1 (Homo sapiens, UniProt Q96FL8); experiment: Export assay in HEK293 cells co-transduced with OCT1 and MATE1; type: cell-based; set-up: host or cells: HEK293, baculovirus transduction (CMV promoter), transient; co-transduced with human OCT1 in the export assay; settings: cells expressing OCT1 and MATE1; 1 µM, 1 min, pH 7.4
# T1 sequence (Q96FL8 1-570): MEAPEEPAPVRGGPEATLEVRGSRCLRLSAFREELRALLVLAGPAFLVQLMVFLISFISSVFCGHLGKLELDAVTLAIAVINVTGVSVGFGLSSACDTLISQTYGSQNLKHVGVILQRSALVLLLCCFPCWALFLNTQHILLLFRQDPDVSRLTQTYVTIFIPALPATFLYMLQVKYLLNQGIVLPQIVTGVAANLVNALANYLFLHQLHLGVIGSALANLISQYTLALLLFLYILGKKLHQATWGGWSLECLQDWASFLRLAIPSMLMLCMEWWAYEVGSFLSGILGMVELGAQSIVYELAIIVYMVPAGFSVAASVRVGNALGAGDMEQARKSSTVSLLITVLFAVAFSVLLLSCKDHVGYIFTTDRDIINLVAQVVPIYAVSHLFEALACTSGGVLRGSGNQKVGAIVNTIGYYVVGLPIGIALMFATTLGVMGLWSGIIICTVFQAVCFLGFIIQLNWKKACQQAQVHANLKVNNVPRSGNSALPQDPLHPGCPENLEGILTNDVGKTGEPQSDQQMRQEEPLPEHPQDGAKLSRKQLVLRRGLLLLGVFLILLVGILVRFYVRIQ
# Description: HEK293 cells were modified to transiently express (a combination of) human OCT1, OCT2, MATE1, MATE2-K, or eYFP. Briefly, cDNA of the respective genes was cloned downstream of a CMV promoter into a baculovirus, of which passage three was used to transduce HEK293 cells. These cells were seeded in poly-D-lysine coated 24- or 96-wells plates and grown in a 37 °C incubator at 5% CO2. Growth was initiated at ~ 25% confluency using 375 or 125 μL cell and complete medium (DMEM + GlutaMAX™-I supplemented with 10% fetal bovine serum) suspension per well, respectively. […]
# Import and export of PG and cycloguanil (CG) was assessed by single and double transduced HEK293 cells. […] Significant reduction in uptake (i.e. export by MATEs) was determined using ln transformation and a one-way repeated measures ANOVA with Dunnet’s post test.
# Anti-malarial concentration in the cell lysates was quantified using an LC–MS/MS system consisting of a UPLC, a binary solvent manager, a vacuum degasser and an autosampler, coupled to a Xevo TQ-S micro triple quadrupole mass spectrometer. […] Positive ion mode was used with selected reaction monitoring (SRM) for the quantitative analysis of AMO, ART, ATO, CQ, CG, DHA, LUM, MQ, PQ, PG, and QN. The peak area of the most abundant product ion was used for quantification.
smiles,measurement,setting,value
"[H]/N=C(\N/C(=N/[H])Nc1ccc(Cl)cc1)NC(C)C [Proguanil, proguanil hydrochloride]",Cmax,[1],306^d [47] ng/mL
same,"Uptake, percentage of eYFP control cells",[2],780 ± 70%
